{"source": "patent US20110112103A1", "about": "“5-HYDROXYPYRIMIDINE-4-CARBOXAMIDE COMPOUND” (DAIICHI SANKYO COMPANY, LIMITED, priority 2008, published 2011)"}
{"system": "human liver cancer-derived cell line Hep3B", "assay": "in vitro erythropoietin (EPO) induction activity in Hep3B cells, EPO ELISA of culture supernatant", "assay_type": "cell-based", "details": "test compound 12.5 μM, 24 hours at 37° C., multiple against EPO concentration in control (0.5% DMSO)", "method": "The in vitro erythropoietin (EPO) induction activity of test compounds was evaluated using human liver cancer-derived cell line Hep3B (ATCC, Manassas, Va.). Hep3B cells were cultured overnight at 37° C. in Dulbecco's Modified Eagle's Medium (DMEM) in the presence of 10% fetal bovine serum (FBS) (24-well plate, 1.0×10^5 cells/well). After replacing with fresh DMEM (+10% FBS) containing a test compound dissolved in 0.5% dimethyl sulfoxide (DMSO) (prepared to a concentration of 12.5 μM) or a solvent control (0.5% DMSO), the cells were cultured for 24 hours at 37° C. After recovering the culture supernatant, EPO concentration in the culture supernatant was quantified using a human EPO ELISA kit (StemCell Technologies). The compounds of Examples 1, 2, 5, 20, 43, 56, 100, 103, 109, 167, 173, 181, 193 and 198 were used for the test compounds. The EPO concentration of each Example was expressed as a multiple against the EPO concentration in the control."}
{"smiles": "Cc1nc(CC2CCN(c3ccc(F)cc3)CC2)nc(C(=O)NCC(=O)O)c1O", "note": "[Example 5, {[(2-{[1-(4-Fluorophenyl)piperidin-4-yl]methyl}-5-hydroxy-6-methylpyrimidin-4-yl)carbonyl]amino}acetic acid]", "fold induction at 12.5 µM": 29}
{"smiles": "Cc1nc(CC2=CCN(c3ccc(C(C)(C)C)cc3)CC2)nc(C(=O)NCC(=O)O)c1O", "note": "[Example 167, {[(2-{[1-(4-tert-Butylphenyl)-1,2,3,6-tetrahydropyridin-4-yl]methyl}-5-hydroxy-6-methylpyrimidin-4-yl)carbonyl]amino}acetic acid]", "fold induction at 12.5 µM": 225}
{"smiles": "Cc1nc(CC2CCN(c3ccc(C(C)(C)C)cc3)CC2)nc(C(=O)NCC(=O)O)c1O", "note": "[Example 1]", "fold induction at 12.5 µM": 98}
{"smiles": "Cc1nc(CC2CCN(c3ccc(Cc4ccccc4)cc3)CC2)nc(C(=O)NCC(=O)O)c1O", "note": "[Example 56, {[(2-{[1-(4-Benzylphenyl)piperidin-4-yl]methyl}-5-hydroxy-6-methylpyrimidin-4-yl)carbonyl]amino}acetic acid]", "fold induction at 12.5 µM": 158}
{"smiles": "Cc1nc(C[C@H]2OC[C@H](c3ccc(-c4ccccc4)cc3)CO2)nc(C(=O)NCC(=O)O)c1O", "note": "[Example 198, {[(2-{[trans-5-(Biphenyl-4-yl)-1,3-dioxan-2-yl]methyl}-5-hydroxy-6-methylpyrimidin-4-yl)-carbonyl]amino}acetic acid]", "fold induction at 12.5 µM": 108}
{"smiles": "Cc1nc(CC2CCN(c3ccc(C(F)(F)F)cc3)CC2)nc(C(=O)NCC(=O)O)c1O", "note": "[Example 20, ({[5-Hydroxy-6-methyl-2-({1-[4-(trifluoromethyl)phenyl]piperidin-4-yl}methyl)pyrimidin-4-yl]carbonyl}amino)acetic acid]", "fold induction at 12.5 µM": 127}
{"smiles": "Cc1nc(CC2CCN(c3ccccc3)CC2)nc(C(=O)NCC(=O)O)c1O", "note": "[Example 2, [({5-Hydroxy-6-methyl-2-[(1-phenylpiperidin-4-yl)methyl]pyrimidin-4-yl}carbonyl)amino]acetic acid]", "fold induction at 12.5 µM": 37}
{"smiles": "Cc1nc(CC2CCN(c3ccc(-c4ccccn4)cc3)CC2)nc(C(=O)NCC(=O)O)c1O", "note": "[Example 100, ({[5-Hydroxy-6-methyl-2-({1-[4-(pyridin-2-yl)phenyl]piperidin-4-yl}methyl)pyrimidin-4-yl]carbonyl}amino)acetic acid]", "fold induction at 12.5 µM": 104}
{"smiles": "CSc1nc(CC2CCN(c3ccc(C(C)(C)C)cc3)CC2)nc(C(=O)NCC(=O)O)c1O", "note": "[Example 193, ({[2-{[1-(4-tert-Butylphenyl)piperidin-4-yl]methyl}-5-hydroxy-6-(methylsulfanyl)pyrimidin-4-yl]carbonyl}amino)acetic acid]", "fold induction at 12.5 µM": 147}
{"smiles": "Cc1nc(Cc2ccc(-c3ccc(C(C)(C)C)cc3)nc2)nc(C(=O)NCC(=O)O)c1O", "note": "[Example 173, {[(2-{[6-(4-tert-Butylphenyl)pyridin-3-yl]methyl}-5-hydroxy-6-methylpyrimidin-4-yl)-carbonyl]amino}acetic acid]", "fold induction at 12.5 µM": 184}
{"smiles": "Cc1nc(Cc2cnc(-c3ccc(C(C)(C)C)cc3)nc2)nc(C(=O)NCC(=O)O)c1O", "note": "[Example 181, {[(2-{[2-(4-tert-Butylphenyl)pyrimidin-5-yl]methyl}-5-hydroxy-6-methylpyrimidin-4-yl)-carbonyl]amino}acetic acid]", "fold induction at 12.5 µM": 155}
{"smiles": "Cc1nc(CC2CCN(c3ccc(-c4ccccc4)cc3)CC2)nc(C(=O)NCC(=O)O)c1O", "note": "[Example 43, {[(2-{[1-(Biphenyl-4-yl)piperidin-4-yl]methyl}-5-hydroxy-6-methylpyrimidin-4-yl)carbonyl]amino}acetic acid]", "fold induction at 12.5 µM": 262}
{"smiles": "Cc1nc(CC2CCN(c3ccc(-c4cccnc4)cc3)CC2)nc(C(=O)NCC(=O)O)c1O", "note": "[Example 103, ({[5-Hydroxy-6-methyl-2-({1-[4-(pyridin-3-yl)phenyl]piperidin-4-yl}methyl)pyrimidin-4-yl]carbonyl}amino)acetic acid]", "fold induction at 12.5 µM": 100}
{"smiles": "Cc1nc(CC2CCN(c3ccc(-c4nccs4)cc3)CC2)nc(C(=O)NCC(=O)O)c1O", "note": "[Example 109, ({[5-Hydroxy-6-methyl-2-({1-[4-(1,3-thiazol-2-yl)phenyl]piperidin-4-yl}methyl)pyrimidin-4-yl]carbonyl}amino)acetic acid]", "fold induction at 12.5 µM": 142}
{"system": "not given", "assay": "not given", "details": "not given", "units": {"melting point": "°C"}}
{"smiles": "Cc1nc(CC2(C)CCN(c3ccc(F)cc3)CC2)nc(C(=O)NCC(=O)O)c1O", "note": "[Example 186, {[(2-{[1-(4-Fluorophenyl)-4-methylpiperidin-4-yl]methyl}-5-hydroxy-6-methylpyrimidin-4-yl)carbonyl]amino}acetic acid]", "melting point": "140 to 141"}
{"smiles": "Cc1nc(C[C@H]2OC[C@H](c3ccc(F)cc3)CO2)nc(C(=O)NCC(=O)O)c1O", "note": "[Example 196, {[(2-{[trans-5-(4-Fluorophenyl)-1,3-dioxan-2-yl]methyl}-5-hydroxy-6-methylpyrimidin-4-yl)carbonyl]amino}acetic acid]", "melting point": 209}
